Laboratory results published in paper PMC9667784, “Synthesis, biological evaluation and computational studies of pyrazole derivatives as Mycobacterium tuberculosis CYP121A1 inhibitors” (RSC Medicinal Chemistry, 2022).
In brackets after ≈: the same amount, converted by molar mass. Several values for one entry are separate records, joined by “and”; a condition that tells them apart may be missing. Identical values can stand only once. Like-named read-outs stand apart in the source and are kept apart here.

Tests used:
Mtb H37Rv [1] = assay: microbe, parasite or virus in culture; assay type: cell-based; details: Mycobacterium tuberculosis
Mtb CYP121A1 = biological target: T1, Mtb CYP121A1 (Mycobacterium tuberculosis, UniProt P9WPP7); assay: biochemical; assay type: binding; details: for Kd: 1 μM protein, 0 to 150 μM compound, plate reader, triplicate; for Soret shift: UV-vis absorbance, Soret band shift on ligand binding; for Spectral response in the UV-vis assay: compared with the imidazole derivatives
T1 construct: made in house
T1 sequence (P9WPP7 whole entry): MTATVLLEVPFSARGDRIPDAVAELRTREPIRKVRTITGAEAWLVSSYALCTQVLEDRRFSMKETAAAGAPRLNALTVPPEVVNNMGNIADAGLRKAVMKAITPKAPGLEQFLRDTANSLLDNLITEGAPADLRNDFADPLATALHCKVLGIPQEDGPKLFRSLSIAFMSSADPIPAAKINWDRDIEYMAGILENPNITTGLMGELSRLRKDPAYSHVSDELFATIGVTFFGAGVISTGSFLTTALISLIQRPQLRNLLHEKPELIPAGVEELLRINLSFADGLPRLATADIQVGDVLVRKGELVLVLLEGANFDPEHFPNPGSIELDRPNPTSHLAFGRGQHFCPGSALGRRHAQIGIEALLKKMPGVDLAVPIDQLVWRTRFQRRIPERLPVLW

CYP121A1 = details: lead diarylpyrazole derivatives, Fig. 2; cited from earlier work
Mtb = tested on: Mtb; set-up: method as in PMID 31367508; details: lead diarylpyrazole derivatives, Fig. 2; cited from earlier work
Mtb H37Rv [2] = tested on: Mtb H37Rv; set-up: method as in PMID 29185746; details: previously prepared methoxy derivatives; cited from earlier work
[3] = Mtb H37Rv, SPOTi, five weeks at 37 °C, average of two independent experiments, read-out: MIC90

Structure (SMILES)	melting point [°C]	MIC90 (Mtb H37Rv [1]; [3])	Kd (Mtb CYP121A1)	Soret shift (Mtb CYP121A1) [nm]	further results
COc1ccc(-c2nn(-c3ccc(F)cc3)cc2Cn2cncn2)cc1 [12a, 1-((1-(4-Fluorophenyl)-3-(4-methoxyphenyl)-1H-pyrazol-4-yl)methyl)-1H-1,2,4-triazole]	150 to 152	12.8 µg/mL and 36.7 µM	–	–	–
CCCOc1ccc(-c2nn(-c3ccc(F)cc3)cc2Cn2ccnc2)cc1 [11e, 4-((1H-Imidazol-1-yl)methyl)-1-(4-fluorophenyl)-3-(4-propoxyphenyl)-1H-pyrazole]	120 to 122	6 µg/mL and 15.9 µM	22.3 ± 4.2 µM	417 to 420	–
CO[C@H]1/C=C/O[C@@]2(C)Oc3c(C)c(O)c4c(O)c(c(/C=N/N5CCN(C)CC5)c(O)c4c3C2=O)NC(=O)/C(C)=C\C=C\[C@H](C)[C@H](O)[C@@H](C)[C@@H](O)[C@@H](C)[C@H](OC(C)=O)[C@@H]1C [Rifampicin, reference compound]	–	0.2 µg/mL and 0.3 µM	–	–	–
COc1ccc(-c2nn(-c3ccc(Cl)cc3)cc2Cn2ccnc2)cc1 [11b, 4-((1H-Imidazol-1-yl)methyl)-1-(4-chlorophenyl)-3-(4-methoxyphenyl)-1H-pyrazole]	136 to 138	6 µg/mL and 16.5 µM	–	–	–
CC(C)Oc1ccc(-c2nn(-c3ccc(Cl)cc3)cc2Cn2cncn2)cc1 [12h, 1-((1-(4-Chlorophenyl)-3-(4-isopropoxyphenyl)-1H-pyrazol-4-yl)methyl)-1H-1,2,4-triazole]	98 to 100	25.6 µg/mL and 65.1 µM	–	–	–
CCOc1ccc(-c2nn(-c3ccc(F)cc3)cc2Cn2cncn2)cc1 [12c, 1-((3-(4-Ethoxyphenyl)-1-(4-fluorophenyl)-1H-pyrazol-4-yl)methyl)-1H-1,2,4-triazole]	140 to 142	25.6 µg/mL and 70.5 µM	–	–	–
COc1ccc(-c2nn(-c3ccc(Cl)cc3)cc2Cn2cncn2)cc1 [12b, 1-((1-(4-Chlorophenyl)-3-(4-methoxyphenyl)-1H-pyrazol-4-yl)methyl)-1H-1,2,4-triazole]	124 to 126	4.4 µg/mL and 11.9 µM	5.13 µM and 5.1 µM	417 to 417	Spectral response in the UV-vis assay (Mtb CYP121A1): weak spectral response
CCOc1ccc(-c2nn(-c3ccc(Cl)cc3)cc2Cn2ccnc2)cc1 [11d, 4-((1H-Imidazol-1-yl)methyl)-1-(4-chlorophenyl)-3-(4-ethoxyphenyl)-1H-pyrazole]	124 to 126	5 µg/mL and 13.3 µM	18.8 ± 10.2 µM	417 to 420	–
CC(C)Oc1ccc(-c2nn(-c3ccc(F)cc3)cc2Cn2cncn2)cc1 [12g, 1-((1-(4-Fluorophenyl)-3-(4-isopropoxyphenyl)-1H-pyrazol-4-yl)methyl)-1H-1,2,4-triazole]	118 to 120	20.9 µg/mL and 55.5 µM	–	–	–
CCCc1ccc(-c2nn(-c3ccccc3)cc2Cn2ccnc2)cc1 [R = Pr]	–	–	–	–	Kd (CYP121A1): 53.7 ± 5.9 µM; MIC (Mtb): 0.78 µg/mL and 0.781 µg/mL
NNC(=O)c1ccncc1 [Isoniazid, reference compound]	–	0.2 µg/mL and 1.8 µM	–	–	–
NC[C@H]1O[C@H](O[C@H]2[C@H](O)[C@@H](O[C@H]3O[C@H](CO)[C@@H](O)[C@H](N)[C@H]3O)[C@H](N)C[C@@H]2N)[C@H](O)[C@@H](O)[C@@H]1O [Kanamycin, reference compound]	–	–	–	–	MIC90 (Mtb H37Rv [1]): 7.8 µg/mL and 16.1 µM
CCCOc1ccc(-c2nn(-c3ccc(F)cc3)cc2Cn2cncn2)cc1 [12e, 1-((1-(4-Fluorophenyl)-3-(4-propoxyphenyl)-1H-pyrazol-4-yl)methyl)-1H-1,2,4-triazole]	120 to 122	20.9 µg/mL and 55.5 µM	–	–	–
CC(C)Oc1ccc(-c2nn(-c3ccc(Cl)cc3)cc2Cn2ccnc2)cc1 [11h, 4-((1H-Imidazol-1-yl)methyl)-1-(4-chlorophenyl)-3-(4-isopropoxyphenyl)-1H-pyrazole]	98 to 100	4.4 µg/mL and 11.9 µM	17.7 µM	417 to 419	–
COc1ccc(-c2nn(-c3ccccc3)cc2Cn2cncn2)cc1 [P2]	–	–	–	–	MIC90 (Mtb H37Rv [2]): 25 µg/mL (≈ 75.4 µM)
CCOc1ccc(-c2nn(-c3ccc(F)cc3)cc2Cn2ccnc2)cc1 [11c, 4-((1H-Imidazol-1-yl)methyl)-3-(4-ethoxyphenyl)-1-(4-fluorophenyl)-1H-pyrazole]	118 to 120	12 µg/mL and 33.2 µM	54 ± 5.2 µM	417 to 422	–
CCCOc1ccc(-c2nn(-c3ccc(Cl)cc3)cc2Cn2cncn2)cc1 [12f, 1-((1-(4-Chlorophenyl)-3-(4-propoxyphenyl)-1H-pyrazol-4-yl)methyl)-1H-1,2,4-triazole]	114 to 116	6.4 µg/mL and 16.2 µM	–	–	–
CC(C)c1ccc(-c2nn(-c3ccccc3)cc2Cn2ccnc2)cc1 [R = iPr]	–	–	–	–	Kd (CYP121A1): 22.5 ± 3.5 µM; MIC (Mtb): 1.562 µg/mL (≈ 4.56 µM)
COc1ccc(-c2nn(-c3ccccc3)cc2Cn2ccnc2)cc1 [P1]	–	–	–	–	MIC90 (Mtb H37Rv [2]): 25 µg/mL (≈ 75.7 µM)
COc1ccc(-c2nn(-c3ccc(F)cc3)cc2Cn2ccnc2)cc1 [11a, 4-((1H-Imidazol-1-yl)methyl)-1-(4-fluorophenyl)-3-(4-methoxyphenyl)-1H-pyrazole]	150 to 152	4.3 µg/mL and 12.3 µM	65 ± 16.6 µM	417 to 421	–
CC(C)Oc1ccc(-c2nn(-c3ccc(F)cc3)cc2Cn2ccnc2)cc1 [11g, 4-((1H-Imidazol-1-yl)methyl)-1-(4-fluorophenyl)-3-(4-isopropoxyphenyl)-1H-pyrazole]	96 to 98	4.3 µg/mL and 11.4 µM	38.5 ± 8.7 µM	417 to 419	–
CCOc1ccc(-c2nn(-c3ccc(Cl)cc3)cc2Cn2cncn2)cc1 [12d, 1-((1-(4-Chlorophenyl)-3-(4-ethoxyphenyl)-1H-pyrazol-4-yl)methyl)-1H-1,2,4-triazole]	122 to 124	6.4 µg/mL and 16.8 µM	–	–	Spectral response in the UV-vis assay (Mtb CYP121A1): weak spectral response
CCc1ccc(-c2nn(-c3ccccc3)cc2Cn2ccnc2)cc1 [R = Et]	–	–	–	–	Kd (CYP121A1): 18.3 ± 3.4 µM; MIC (Mtb): 1.562 µg/mL (≈ 4.76 µM)
CCCOc1ccc(-c2nn(-c3ccc(Cl)cc3)cc2Cn2ccnc2)cc1 [11f, 4-((1H-Imidazol-1-yl)methyl)-1-(4-chlorophenyl)-3-(4-propoxyphenyl)-1H-pyrazole]	90 to 92	4 µg/mL and 10.1 µM	11.7 µM	417 to 419	Binding type from difference spectra (type I / type II) (Mtb CYP121A1; UV-vis binding difference spectra): type II
